Assay results from article PMC8984819, “Acetylene containing 2-(2-hydrazinyl)thiazole derivatives: design, synthesis, and in vitro and in silico evaluation of antimycobacterial activity against Mycobacterium tuberculosis” (RSC Advances, 2022).

Columns and labels:
[1] = tested on: H37Rv strain of Mycobacterium tuberculosis; assay: microbe, parasite or virus in culture; assay type: cell-based; conditions: for inhibition at 50 µg/mL / inhibition at 100 µg/mL: read-out: % Inhibition ± SD
in vitro = assay type: cell-based; conditions: human
Experimental: HEK293 cells were grown in DMEM media containing 10% FBS and L-glutamine–penicillin–streptomycin solution at 37 °C in 5% CO2 condition. To perform MTT assay, 96 well tissue culture plate was seeded with […] number of cells. After 16 hours of seeding, cells were successfully attached to the culture plate and were treated with the active chemical compounds dissolved in DMSO at different concentrations as follows: 25 μg ml^−1, 50 μg ml^−1, 75 μg ml^−1 and 100 μg ml^−1. The cells were also treated with the DMSO to exclude the solvent-induced toxicity and used as an internal control. After 48 hours post active chemical compounds treatment, the MTT assay was performed as described previously.[45] MG-132, a potent proteasomal inhibitor and an inducer of apoptosis[46,47] was used as a positive control in the assay. Wells with media lacking any cells were as used as a negative control in the assay.
Tetrazolium-based […] cytotoxicity (MTT) assay is an important method to evaluate the viability of cells and it was performed for all the active chemical compounds using HEK293. To illustrate the percentage cell viability, the HEK293 cells were incubated with different concentrations of all active chemical compounds for 48 h. The compounds showing the viability of less than 50% of the cells were considered cytotoxic compounds. We observed that maximum compounds (such as 7, 9, 10, 13 and 25) show more than 75% of the cell viability at the highest concentration i.e. 100 μg ml^−1 for 48 hours of the treatment. Similarly, other compounds (such as 5, 6, 22, 26 and 31) show 70% cell viability upon 48 hours of the treatment. […] MG-132, a potent proteasomal inhibitor and an inducer of apoptosis was used as a positive control in the assay.

[2] = Mycobacterium tuberculosis, H37RV, 50 µg/ml, M. Tb H37Rv, LRP assay
[3] = Mycobacterium tuberculosis, H37RV, M. Tb H37Rv, LRP assay

SMILES | inhibition at 50 µg/mL [1, 2] | inhibition at 100 µg/mL [1, 3] | melting point | antitubercular activity against M. Tb (active = 50% RLU reduction and above) ([1]; concentration not given) | viability at 48 h, 100 μg ml^−1 (in vitro) | % Inhibition ± SD ([1]; 50 µg/ml, M. Tb H37Rv, LRP assay) | inhibition at 2 µg/mL ([1]; Mycobacterium tuberculosis, H37RV, at 2 µg/ml, reference drugs, M. Tb H37Rv, read-out: % Inhibition)
C#CCOc1ccc(Br)cc1/C=N/Nc1nc(-c2ccc(C#N)cc2)cs1 [Compound 30] | 43.7 ± 1.31% | 48.7 ± 1.46% | 199 to 201 °C |  |  |  | 
C#CCOc1ccc(Br)cc1C=O [Compound 3] | 48.7 ± 1.46% | 50.9 ± 1.52% | 92 to 93 °C |  |  |  | 
C#CCOc1ccccc1/C=N/NC(N)=S [Compound 4] | 46.8 ± 1.4% |  | 174 to 176 °C | inactive |  |  | 
C#CCOc1ccc(/C=N/Nc2nc(-c3ccc(Br)cc3)cs2)cc1OCC [Compound 20] | 7.35 ± 0.22% | 12.1 ± 0.36% |  |  |  |  | 
C#CCOc1ccc(/C=N/Nc2nc(-c3ccc(Cl)c(Cl)c3)cs2)cc1OCC [Compound 19] | 2.38 ± 0.07% | 7.21 ± 0.21% | 153 to 155 °C |  |  |  | 
C#CCOc1ccc(Br)cc1/C=N/Nc1nc(-c2ccc(Br)cc2)cs1 [Compound 29] | 27.1 ± 0.81% | 37.2 ± 1.11% | 208 to 210 °C |  |  |  | 
C#CCOc1ccc(C=O)cc1OCC [Compound 2] | 7.73 ± 0.23% | 8.08 ± 0.24% | 74 to 75 °C |  |  |  | 
C#CCOc1ccccc1/C=N/Nc1nc(-c2ccc(C)cc2)cs1 [Compound 14] | 38.2 ± 1.14% |  |  |  |  |  | 
C#CCOc1ccccc1/C=N/Nc1nc(-c2ccc([N+](=O)[O-])cc2)cs1 [Compound 12] | 29.1 ± 0.87% |  | 185 to 187 °C |  |  |  | 
C#CCOc1ccc(/C=N/Nc2nc(-c3ccc(F)cc3)cs2)cc1OCC [Compound 17] | 2.06 ± 0.06% | 11.4 ± 0.34% | 152 to 154 °C |  |  |  | 
C#CCOc1ccc(Br)cc1/C=N/Nc1nc(-c2ccc(OC)cc2)cs1 [Compound 32] | 43.7 ± 1.31% | 48.7 ± 1.46% | 184 to 187 °C |  |  |  | 
C#CCOc1ccccc1/C=N/Nc1nc(-c2ccc(OC)cc2)cs1 [Compound 15] | 10.3 ± 0.3% |  | 181 to 183 °C |  |  |  | 
C#CCOc1ccc(Br)cc1/C=N/NC(N)=S [Compound 6] | 51.2 ± 1.53% | 56.9 ± 1.7% | 204 to 206 °C |  | 70% |  | 
C#CCOc1ccc(Br)cc1/C=N/Nc1nc(-c2ccc(C)cc2)cs1 [Compound 31] | 54.9 ± 1.64% | 56.3 ± 1.68% | 191 to 193 °C |  | 70% | 54% | 
NNC(=O)c1ccncc1 [INH, isoniazid, reference compound] |  |  |  |  |  |  | > 99%
C#CCOc1ccccc1/C=N/Nc1nc(-c2ccc(F)cc2)cs1 [Compound 8] | 38 ± 1.14% |  | 180 to 182 °C |  |  |  | 
